Experimental data taken from US12085575B2, “Compositions and methods for detecting proteinopathies” (BOARD OF SUPERVISORS OF LOUISIANA STATE UNIVERSITY AND …, priority 2011, dated 2024).

Assays:
Format in all cases: cell-based, human
Mfn2 = Mfn2 modification and degradation in A-T/LV shRNA cells treated with mitochondrial depolarizing agents; conditions: ISG15 overexpressing A-T cells, 24 hr
Method: Immunoblotting Analysis of Mitochondrial Proteins—Mitochondria were isolated from A-T/LV control and ISG15 shRNA cells using the Miochondrial Isolation Kit (Thermo Scientific Company, 89874). The Dounce homogenization protocol described by the manufacturer was used to isolate mitochondria from cells. Mitochondrial pellets were resuspended in lysis buffer containing 50 mM Tris pH 7.5 and 4% (v/v) SDS. Samples were homogenized and boiled for 10 min. Lysates containing equal protein were then mixed with 6× Laemmli SDS sample buffer (3× final concentration). Samples were boiled again and mitochondrial proteins were analyzed by SDS-PAGE. Immunoblotting analyses using either anti-ISG15 (raised against human ISG15) (20), anti-ubiquitin (gift from Dr. Arthur Haas, at LSUHSC—New Orleans), or anti-mitofusin 2 (Abcam, ab88569) antibodies were carried out using the ECL Western procedure (Pierce, 34076) and the BioRad VersaDoc Imaging System (BioRad). Immunoblotting Analysis of HA Polyubiquitylated Proteins in Cells: Cells were transfected with HA-ubiquitin using the PolyFect transfection reagent (Qiagen, 301105). Twenty four hours after transfection, mitochondria were isolated as described above. Mitochondrial lysis, SDS-PAGE, and immunoblotting analysis to detect HA-ubiquitin conjugated proteins using anti-HA antibodies were carried out as described above. Immunoblotting Analysis of Mfn2 in Cells: Cells were lysed in lysis buffer containing 50 mM Tris-HCl, pH 7.5, 2% SDS, and protease inhibitor cocktail. Lysates were sonicated, boiled, and cleared by centrifugation. Lysates containing equal protein were then mixed with 6× Laemmli SDS sample buffer (3× final concentration). Samples were boiled again and proteins were separated by 15% SDS-PAGE. Immunoblotting analysis was carried out using anti-Mfn2 antibodies (Abcam) as described above. Intensity of the Mfn2 bands was quantitated using BioRad Quantity One software. Statistical analysis—Statistical analysis was carried out using GraphPad software.
Many outer mitochondrial membrane (OMM) proteins are ubiquitylated and degraded via the 26S proteasome prior to mitophagy in cells treated with the mitochondrial depolarizing agents (28,29). To test whether ISG15 inhibits polyubiquitylation of OMM proteins, we assessed the fate of Mfn2, an OMM protein and proteasome substrate, in A-T/LV-control and A-T/LV-ISG15-silenced cells treated with two different mitochondrial depolarizing agents, valinomycin and carbonylcyanide m-chlorophenylhydrazone (CCCP). Consistent with the literature reports (29,35,36), we observed a ladder of high molecular weight anti-Mfn2 cross-reactive bands above the 86 kDa Mfn2 protein band that is reminiscent of polyubiquitylation, in both ISG15-silenced and ISG15 overexpressing A-T cells (FIGS. 34 A and B, left panels). The endogenous level of these high molecular weight Mfn2 cross-reactive bands was remarkably higher in ISG15-silenced as compared to the ISG15-overexpressing A-T cells in the absence of any drugs (FIGS. 34A and B, first panels, compare lanes 1 and 4). […] In contrast, the level of these Mfn2 cross-reactive high molecular weight bands decreased under the same drug treatment conditions in ISG15-silenced A-T cells (FIGS. 34A and B, first panels, lanes 4-6, and the accompanying bar graph in the second panel for quantitation). […] The bar graphs in FIGS. 34A and B, third panels, show mean values of the ratio between free Mfn2 (86 kDa band) and actin proteins (±SEM) in CCCP-treated A-T/LV-control and ISG15 shRNA cells measured from eight independent experiments, and valinomycin-treated A-T/LV-control and ISG15 shRNA cells measured from three independent experiments respectively.

[1] = system: polyubiquitylated proteins; experiment: CHX chase of polyubiquitylated proteins in FT169A cells; conditions: FT169A (ATM+) cells
Method: To test whether the defective ubiquitin-mediated degradation of cellular proteins contributes to neurodegeneration in A-T, the rate of degradation of overall cellular polyubiquitylated proteins was monitored in FT169A (A-T) (ATM null) and FT169A (ATM+) (ATM reconstituted FT169A) isogenic cells as described (71) using the protein synthesis inhibitor cycloheximide (CHX) (Sigma-Aldrich). In FIG. 1A, FT169A (A-T) (lanes 1-4) and FT169A (ATM+) (lanes 5-8) cells were treated with the protein synthesis inhibitor CHX (10 μg/ml) for 0, 1, 3, and 6 hours. Cell lysates were analyzed using discontinuous (15%) SDS-PAGE followed by immunoblotting with anti-ubiquitin antibody. The symbols * and ** mark the position of high-molecular-weight (HMW) polyubiquitylated proteins. Quantitation of the high-molecular-weight (HMW) polyubiquitylated proteins (shown as **) is shown in the bar graph.
The ubiquitin sequence contains seven lysine residues (at positions 6, 11, 27, 29, 33, 48, and 63) and polyubiquitin chain assembly can occur at any of these lysine residues (74). Lys48-linked polyubiquitylated proteins are targeted for destruction via the 26S proteasome (74). […] The amount of polyubiquitylated proteins and the rate of turnover of polyubiquitylated proteins (see the HMW protein species marked by *) were determined under the same conditions as in FIG. 1B using the anti-HA antibody in immunoblotting. […]

[2] = system: HA-polyubiquitylated proteins; experiment: UV-induced degradation of HA-polyubiquitylated proteins (anti-HA Western blot); conditions: MG132 1 nm or 3-MA 10 nm for 18 h, UV 25 mJ/m2
Method: Immunoblotting Analysis of HA-ubiquitin conjugated proteins in cells exposed to UV radiation. Cells ([…]) were transfected with a hemagglutinin (HA)-ubiquitin plasmid using the PolyFect transfection reagent (Qiagen; Valencia, CA) as described (24). Twenty-four h after transfection, cells were treated with either proteasome inhibitor MG132 (1 μM) (Boston Biochemicals; Cambridge, MA) or autophagy inhibitor Bafilomycin A1 (Bafl) (1 nM) (Sigma-Aldrich) or 3-Methyladenine (3-MA) (100 nM) for 18 h. Cells were exposed to UV radiation (25 mJoules, using BioRad GS Gene Linker™ UV Chamber) and/or left untreated. Cells were then allowed to recover in the presence of inhibitors for 3 hr. Cell lysis, SDS-PAGE, and immunoblotting analysis to detect HA-ubiquitin conjugated proteins using anti-HA antibodies was carried out as described herein.
Decrease in the steady state levels of polyubiquitylated proteins could be due to their increased deubiquitylation or increased degradation via the 26S proteasome. Also, the ubiquitin antibody used in the experiment herein is known to cross-react with free ISG15/UCRP (44), and ISG15 protein is elevated in A-T cells (20). An HA-ubiquitin construct was transfected and then the steady state levels of the HA-polyubiquitylated proteins was assessed (to rule out the possibility of protein polyubiquitylation versus protein polyISGlyation), in the absence or presence of the proteasome inhibitor MG132 (to rule out the possibility of protein deubiquitylation versus protein degradation), in UV treated A-T and ATM+ cells. In FIG. 8B, A-T and ATM+ cells were transfected with a HA-ubiquitin construct. Cells were then treated with MG132 (1 μM) or Bafl (1 nM) for 18 hours and exposed to UV radiation (25 mJ/m2). After recovery in the presence of inhibitors for an additional three hours, cells were lysed. Cell extracts were analyzed by Western blotting for HA-polyubiquitylated proteins and actin using anti-HA and anti-actin antibodies respectively. Intensity of the total HA-polyubiquitylated proteins was quantitated using BioRad Quantity One software and results shown in FIG. 8C.
To complement the results shown in FIG. 8B, another construct was used that expresses HA-ubiquitin and that can preferentially make polyubiquitin chains linked through Lys48 on the substrates (20). In FIG. 8D, A-T and ATM+ cells were transfected with HA-Lys48 only ubiquitin construct. The inhibitor and UV treatments, cell lysis, SDS-PAGE, and immunoblotting analysis to detect HA-ubiquitin conjugated proteins using anti-HA antibodies was carried out as described herein. The experiment was repeated two times with the reproducible results. Similar results were obtained using this distinct HA-ubiquitin construct (FIG. 8D) as obtained herein (FIG. 8B); UV induced MG132- and Bafilomycin-resistant degradation of HA-Lys48-linked polyubiquitylated proteins in A-T cells, but not in ATM+ cells.
For FIG. 14A, HA-ubiquitin-transfected A-T/LV-control shRNA cells were exposed to UV (25 mJ/m2). After three hours of recovery, assessment of HA-polyubiquitylated proteins was carried out as described herein for FIG. 8B. In FIG. 14B, HA-ubiquitin-transfected A-T/LV-control shRNA cells were treated with Bafl (1 nm for 18 h). Cells were then exposed to UV (25 mJ/m2). After three hours of recovery in the presence of the inhibitor, assessment of HA-polyubiquitylated proteins was carried out as described for FIG. 14A. For FIG. 14C, HA-ubiquitin-transfected A-T/LV-control shRNA cells were treated with MG132 (1 nm for 18 h). Cells were then exposed to UV (25 mJ/m2). After three hours of recovery in the presence of the inhibitor, assessment of HA-polyubiquitylated proteins was carried out as described for FIG. 14A. For FIG. 14D, HA-ubiquitin-transfected A-T/LV-control shRNA cells were treated with 3-MA (10 nm for 18 h). Cells were then exposed to UV (25 mJ/m2). […]

[3] = system: autophagosomes and autophagolysosomes; experiment: Cyt-ID and LysoTracker Red staining of autophagosomes, lysosomes and autophagolysosomes
Method: Autophagasome, lysosome and autophagolysosomes staining. Cells (100,000/point) were cultured on fibronectin-coated glass coverslips. Cells were treated with autophagy inhibitor Bafl (1 nM) (Sigma-Aldrich) for 18 hr. Cells were then exposed to UV radiation and allowed to recover in the presence of inhibitors for 3 h. Cells were then washed (2×1 min) with PBS and co-stained with Cyt-ID® (Cyt-ID® Autophagy Detection Kit from Enzo Lifesciences; Farmingdale, NY) and Lyso Tracker® Red DND-99 (Invitrogen) for 30 min at 37° C. in a CO2 incubator following manufacturer's protocol. Stained cells were then washed (2×1 min) with PBS and fixed with 4% paraformaldehyde for 20 min at room temperature. After washing with PBS (3×10 min), cells were mounted on slides in anti-fade mounting medium with DAPI (Invitrogen). Images were taken using a 63× oil immersion objective with a Leica DMRA2 upright microscope run through SlideBook software (Intelligent Imaging Innovations).
Autophagic flux was also monitored using Cyto-ID® and LysoTrack Red dyes. A-T and ATM+ cells were treated with Bafl (1 nM for 18 h) and then exposed to UV (25 mJ/m2) as indicated. Three hours after recovery in the presence of inhibitors, cells were co-stained with Cyt-ID® and LysoTracker Red® dyes. Fluorescence images of Cyt-ID® and LysoTracker Red® stained cells were made (Color images not shown). Green (autophagosomes; from Cyt-TD®-stained panels), red (lysosomes; from LysoTracker Red-stained panels), and yellow (autophagolysosomes; from merged panels) dots in A-T and ATM+ cells were counted manually using the ImageJ plug-in Cell Counter. Mean number of dots/cell is shown in FIGS. 11A and 11B, respectively. In FIGS. 11A and 11B, the number of autophagosomes (green dots) is represented by stippled bars; the number of lysosomes (red dots) is presented by lined bar; and the number of autophagolysosomes (yellow dots) is represented by clear (white) bars.
Bafilomycin inhibits autophagy at a late stage (47). Whether 3-methyl adenine (3-MA), an autophagy inhibitor known to inhibit autophagy at early stage by inhibiting formation of autophagosomes (56), could block UV-induced autophagic flux was tested in A-T/LV-control shRNA cells. Using Cyto-ID® and LysoTrack Red dyes as described herein in FIGS. 9A, 9B, 11A and 11B, the same criteria were used to judge autophagic activity in immunofluorescence analysis as described for FIGS. 11A and 11B.
The effect of 3-MA on UV-induced autophagic flux was tested in A-T/LV-ISG15 shRNA cells. A-T/LV-ISG15 shRNA cells were either left untreated or treated with 3-MA (10 nM for 18 h), and cells were then exposed to UV (25 mJ/m2). Three hours after recovery in the presence of the inhibitor, cells were co-stained with Cyt-ID® and LysoTracker Red® dyes. Fluorescence images of Cyt-ID® and LysoTracker Red® stained cells were made.

CC(C)[C@@H]1NC(=O)[C@H](C)OC(=O)[C@@H](C(C)C)NC(=O)[C@@H](C(C)C)OC(=O)[C@H](C(C)C)NC(=O)[C@H](C)OC(=O)[C@@H](C(C)C)NC(=O)[C@@H](C(C)C)OC(=O)[C@H](C(C)C)NC(=O)[C@H](C)OC(=O)[C@@H](C(C)C)NC(=O)[C@@H](C(C)C)OC1=O [valinomycin]
free Mfn2 protein level (Mfn2): slightly increased

C[C@@H]1C[C@@H]([C@H](O)CC2CC(=O)NC(=O)C2)C(=O)[C@@H](C)C1 [CHX, cycloheximide]
level of polyubiquitylated proteins reduced ([1]; CHX 10 μg/ml, within 6 hours): more than 30% | cellular pool of Lys48-linked polyubiquitylated proteins reduced ([1]; CHX, within 3 hours): more than 70%

Cn1cnc(N)c2ncnc1-2 [3-MA, 3-Methyladenine]
UV-induced degradation of HA-polyubiquitylated proteins ([2]; A-T/LV-ISG15 shRNA (ISG15-silenced) cells): induced degradation | UV-induced degradation of HA-polyubiquitylated proteins ([2]; A-T/LV-control shRNA cells): markedly blocked | yellow mean dots/cell (autophagolysosomes) ([3]; 3-MA-treated A-T/LV-control shRNA cells, untreated 3.8): 0.5 dots/cell | green mean dots/cell (autophagosomes) ([3]; 3-MA-treated A-T/LV-control shRNA cells, untreated 4.6): 0.16 dots/cell | autophagic activity ([3]; A-T/LV-ISG15 shRNA cells, 3-MA 10 nM 18 h, UV 25 mJ/m2): No apparent change | green dots and yellow dots ([3]; A-T/LV-control shRNA cells co-treated with 3-MA and UV): remained unaltered
